Experimental data published in patent publication US8192962B2, “Processes for detecting toxic substances” (Daikin Industries, Ltd., priority 2001, dated 2012).

System: Detoxification protein genes
Assay: DNA chip mRNA expression in yeast, detoxification protein genes (Table 8)
Type: cell-based, Saccharomyces cerevisiae S288C
Procedure, shortened: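 Value is the scanned fluorescence intensity ratio of exposed versus chemical-free cells. Log-phase S288C yeast in YPD at 25° C. received one toxic substance for two hours, dosed to slow growth without killing; Cy3/Cy5-labeled cDNA from oligo-dT-purified mRNA was hybridized to a whole-genome chip at 65° C.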

S=C([S-])NCCNC(=S)[S-].[Zn+2] [(11), zinc N,N′-ethylenebis(dithiocarbamate)]
The level of expressed mRNA in the presence of chemical substance/The level of expressed mRNA in the absence of chemical substance (yeast gene YBR244W): 1.5
The level of expressed mRNA in the presence of chemical substance/The level of expressed mRNA in the absence of chemical substance (yeast gene YBR293W): 1.1
The level of expressed mRNA in the presence of chemical substance/The level of expressed mRNA in the absence of chemical substance (yeast gene YCL035C): 2.1
The level of expressed mRNA in the presence of chemical substance/The level of expressed mRNA in the absence of chemical substance (yeast gene YCL069W): 1.0
The level of expressed mRNA in the presence of chemical substance/The level of expressed mRNA in the absence of chemical substance (yeast gene YCR083W): 1.8
The level of expressed mRNA in the presence of chemical substance/The level of expressed mRNA in the absence of chemical substance (yeast gene YDL100C): 2.8
The level of expressed mRNA in the presence of chemical substance/The level of expressed mRNA in the absence of chemical substance (yeast gene YDL168W): 1.9
The level of expressed mRNA in the presence of chemical substance/The level of expressed mRNA in the absence of chemical substance (yeast gene YDR256C): 1.4
The level of expressed mRNA in the presence of chemical substance/The level of expressed mRNA in the absence of chemical substance (yeast gene YDR453C): 2.3
The level of expressed mRNA in the presence of chemical substance/The level of expressed mRNA in the absence of chemical substance (yeast gene YDR513W): 2.0
The level of expressed mRNA in the presence of chemical substance/The level of expressed mRNA in the absence of chemical substance (yeast gene YDR538W): 0.9
The level of expressed mRNA in the presence of chemical substance/The level of expressed mRNA in the absence of chemical substance (yeast gene YEL027W): 0.9
The level of expressed mRNA in the presence of chemical substance/The level of expressed mRNA in the absence of chemical substance (yeast gene YEL065W): 0.6
The level of expressed mRNA in the presence of chemical substance/The level of expressed mRNA in the absence of chemical substance (yeast gene YER185W): 1.6
The level of expressed mRNA in the presence of chemical substance/The level of expressed mRNA in the absence of chemical substance (yeast gene YFL050C): 1.2
The level of expressed mRNA in the presence of chemical substance/The level of expressed mRNA in the absence of chemical substance (yeast gene YGL013C): 0.9
The level of expressed mRNA in the presence of chemical substance/The level of expressed mRNA in the absence of chemical substance (yeast gene YGL254W): 1.1
The level of expressed mRNA in the presence of chemical substance/The level of expressed mRNA in the absence of chemical substance (yeast gene YGR088W): 3.9
The level of expressed mRNA in the presence of chemical substance/The level of expressed mRNA in the absence of chemical substance (yeast gene YGR138C): 0.7
The level of expressed mRNA in the presence of chemical substance/The level of expressed mRNA in the absence of chemical substance (yeast gene YGR197C): 1.1
The level of expressed mRNA in the presence of chemical substance/The level of expressed mRNA in the absence of chemical substance (yeast gene YGR209C): 3.1
The level of expressed mRNA in the presence of chemical substance/The level of expressed mRNA in the absence of chemical substance (yeast gene YGR224W): 0.8
The level of expressed mRNA in the presence of chemical substance/The level of expressed mRNA in the absence of chemical substance (yeast gene YHL040C): 1.7
The level of expressed mRNA in the presence of chemical substance/The level of expressed mRNA in the absence of chemical substance (yeast gene YHL047C): 1.0
The level of expressed mRNA in the presence of chemical substance/The level of expressed mRNA in the absence of chemical substance (yeast gene YHR008C): 2.1
The level of expressed mRNA in the presence of chemical substance/The level of expressed mRNA in the absence of chemical substance (yeast gene YHR048W): 2.0
The level of expressed mRNA in the presence of chemical substance/The level of expressed mRNA in the absence of chemical substance (yeast gene YHR053C): 1.4
The level of expressed mRNA in the presence of chemical substance/The level of expressed mRNA in the absence of chemical substance (yeast gene YHR055C): 1.8
The level of expressed mRNA in the presence of chemical substance/The level of expressed mRNA in the absence of chemical substance (yeast gene YIR002C): 0.8
The level of expressed mRNA in the presence of chemical substance/The level of expressed mRNA in the absence of chemical substance (yeast gene YIR038C): 3.4
The level of expressed mRNA in the presence of chemical substance/The level of expressed mRNA in the absence of chemical substance (yeast gene YJL101C): 2.7
The level of expressed mRNA in the presence of chemical substance/The level of expressed mRNA in the absence of chemical substance (yeast gene YJR104C): 2.6
The level of expressed mRNA in the presence of chemical substance/The level of expressed mRNA in the absence of chemical substance (yeast gene YKL026C): 3.0
The level of expressed mRNA in the presence of chemical substance/The level of expressed mRNA in the absence of chemical substance (yeast gene YKL064W): 0.7
The level of expressed mRNA in the presence of chemical substance/The level of expressed mRNA in the absence of chemical substance (yeast gene YKR066C): 1.3
The level of expressed mRNA in the presence of chemical substance/The level of expressed mRNA in the absence of chemical substance (yeast gene YKR105C): 0.0
The level of expressed mRNA in the presence of chemical substance/The level of expressed mRNA in the absence of chemical substance (yeast gene YKR106W): 1.8
The level of expressed mRNA in the presence of chemical substance/The level of expressed mRNA in the absence of chemical substance (yeast gene YLL028W): 0.7
The level of expressed mRNA in the presence of chemical substance/The level of expressed mRNA in the absence of chemical substance (yeast gene YLL057C): 1.3
The level of expressed mRNA in the presence of chemical substance/The level of expressed mRNA in the absence of chemical substance (yeast gene YLL060C): 14.1
The level of expressed mRNA in the presence of chemical substance/The level of expressed mRNA in the absence of chemical substance (yeast gene YLR043C): 1.4
The level of expressed mRNA in the presence of chemical substance/The level of expressed mRNA in the absence of chemical substance (yeast gene YLR046C): 0.9
The level of expressed mRNA in the presence of chemical substance/The level of expressed mRNA in the absence of chemical substance (yeast gene YML028W): 1.0
The level of expressed mRNA in the presence of chemical substance/The level of expressed mRNA in the absence of chemical substance (yeast gene YML116W): 4.3
The level of expressed mRNA in the presence of chemical substance/The level of expressed mRNA in the absence of chemical substance (yeast gene YMR015C): 1.0
The level of expressed mRNA in the presence of chemical substance/The level of expressed mRNA in the absence of chemical substance (yeast gene YMR038C): 2.7
The level of expressed mRNA in the presence of chemical substance/The level of expressed mRNA in the absence of chemical substance (yeast gene YNL239W): 1.9
The level of expressed mRNA in the presence of chemical substance/The level of expressed mRNA in the absence of chemical substance (yeast gene YNL241C): 3.0
The level of expressed mRNA in the presence of chemical substance/The level of expressed mRNA in the absence of chemical substance (yeast gene YNL259C): 1.6
The level of expressed mRNA in the presence of chemical substance/The level of expressed mRNA in the absence of chemical substance (yeast gene YOL158C): 0.7
The level of expressed mRNA in the presence of chemical substance/The level of expressed mRNA in the absence of chemical substance (yeast gene YOR031W): 1.2
The level of expressed mRNA in the presence of chemical substance/The level of expressed mRNA in the absence of chemical substance (yeast gene YOR153W): 1.0
The level of expressed mRNA in the presence of chemical substance/The level of expressed mRNA in the absence of chemical substance (yeast gene YOR247W): 2.9
The level of expressed mRNA in the presence of chemical substance/The level of expressed mRNA in the absence of chemical substance (yeast gene YOR251C): 1.0
The level of expressed mRNA in the presence of chemical substance/The level of expressed mRNA in the absence of chemical substance (yeast gene YOR273C): 1.5
The level of expressed mRNA in the presence of chemical substance/The level of expressed mRNA in the absence of chemical substance (yeast gene YPL163C): 0.5
The level of expressed mRNA in the presence of chemical substance/The level of expressed mRNA in the absence of chemical substance (yeast gene YPR200C): 2.0
